Results: patent US6855727B2, “Muscular fatigue-controlling composition and method for providing muscular fatigue-controlling effect” (Yaizu Suisankagaku Industry Co., Ltd., priority 2000, dated 2005)

Assay: lactic acid amount in plasma after loading of exercise
Format: in vivo
Details: Test Example 2; mice, 200 mg/kg oral (total amount); 1 hour after loading of exercise (FIG. 6)
Method: Further, when 1 hour passed after the loading of exercise, the blood was collected and the plasma was separated, and the lactic acid amount in the plasma was measured. The measurement of lactic acid amount was carried out with a commercially available kit (trade name: “F-kit L-lactic acid”; manufactured by Beringer Mannheim Co.). […] Further, when 1 hour passed after the loading of exercise, the blood was collected and the plasma was separated, and the lactic acid amount in the plasma was measured in the same manner as in TEST EXAMPLE 1.

## O=C[C@H](O)[C@H](O)[C@H](O)CO [ribose, D-ribose]
  lactic acid amount in the plasma, decrease as compared with the control group: 29.4%
